According to US20170009228A1, “BIOLOGICAL MATERIALS AND THERAPEUTIC USES THEREOF” (IMPERIAL INNOVATIONS LIMITED, priority 2014, published 2017):

Columns and labels:
wild type mice = assay: Intra-articular injection of FBG in wild type mice, knee joint histology; assay type: in vivo
Procedure: Wild type mice were anesthetized by intraperitoneal injection of 150 μl of Hypnorm diluted 1:10 in sterile water and then injected with 100 ng, 1 or 3 μg FBG in 10 μl of sterile PBS into the right knee joint using a sterile 33-gauge microcannula. Control mice received an injection of 10 μl PBS alone or were not injected.
On days 3 and 7, mice were euthanized, the knee joints were excised and fixed in 10% (volume/volume) buffered formalin, decalcified, with 10% EDTA and processed to paraffin.
Coronal tissue sections (4 μm) were cut at 7 depths throughout the joint; 80 μm apart and stained with hematoxylin and eosin or Safranin-O to assess joint pathology.
Inflammation (the influx of inflammatory cells into synovium (infiltrate) and the joint cavity (exudates), was graded using an arbitrary scale from 0 (no inflammation) to 3 (severe inflammation). Chondrocyte death was determined as the percentage of cartilage area containing empty lacunae in relation to the total area. Cartilage surface erosion was determined as the amount of cartilage lost in relation to the total cartilage area. Bone destruction was determined in 10 different areas of the total knee joint section. Destruction was graded on a scale of 0 (no damage) to 3 (complete loss of bone structure). Histological analysis was performed by an investigator who was blinded to the experimental groups. The mean score for each animal in an experimental group was calculated by averaging the histopathologic scores in at least 5 section depths per joint.

[1] = test system: synovial fibroblasts from RA patients (RAF); assay: Cell adhesion to coated FBG, RA synovial fibroblasts; assay type: cell-based, human; settings: coated wells, 45 minutes, crystal violet
Procedure: (A) The sequence identified to bind integrin ≢vβ3 is shown in white (Yokoyama et al., 2000). Within this sequence two Arginines (shown in black) were identified to be citrullinated. (B) Wells of a 96 well plate were coated with different concentrations of FBG, citrullinated FBG (cFBG), FBG incubated in buffer without Calcium (FBG —Ca^2+), or FBG incubated without PAD (FBG -PAD). As a positive control wells were coated with Fibronectin (FN) (1 ug/ml), and coating with BSA (10 mg/ml) served as negative control. Plates were incubated with human dermal fibroblasts (HDF) or synovial fibroblasts from RA patients (RAF) for 45 minutes and adhesion was measured by determining absorbance of attached cells after staining with crystal violet (0.1%). Data are shown as the mean of at least four independent experiments+s.e.m., *=p<0.05, **=p<0.01.

MyD88 = assay: Cytokine synthesis in embryonic fibroblasts from MyD88 deficient mice; assay type: cell-based
Procedure: MEFs express high levels of mRNA of all 9 murine TLRs and are specifically and highly responsive to TLR ligand activation. […] MEFs were isolated from d13 embryos harvested from age-matched, pregnant female wild type, TLR2, TLR4 and null mice (as described in Todaro (1963)). Fibroblasts were cultured at 2×10^4 cells/well in DMEM containing 10% (v/v) FBS and 100 U/ml penicillin/streptomycin in 96-well tissue culture plates for 24 hours before stimulation.
Cells were incubated for 24 hours at 37° C. with the indicated doses of tenascin-C and recombinant tenascin-C fragments (1.0 μM-1.0 nM). Cells were also stimulated where indicated with LPS (1 ng/ml for human macrophages, 10 ng/ml for human fibroblasts, RA membrane cells and HEKs, 100 ng/ml for MEFS and BMDMs and 10 ng/ml for HEKS), PAM3 (10 ng/ml for human macrophages, human fibroblasts, and HEKs, 100 ng/ml for MEFs and BMDMs), murine IL-1 (5 ng/ml for MEFS) and murine TNF-α (100 ng/ml for MEFS). Unless specifically stated otherwise rough LPS was used for in vitro studies.
Supernatants were subsequently examined for the presence of the cytokines TNF-α, IL-6, and IL-8 by enzyme-linked immunosorbent assay (ELISA) according to the manufacturer's instructions. Absorbance was read on a spectrophotometric ELISA plate reader (Labsystems Multiscan Biochromic, Vantaa, Finland) and analyzed using the Ascent software program (Thermo Labsystems, Altrincham, UK).

TLR2 and TLR4 null mice = assay: Intra-articular injection of FBG in TLR2 and TLR4 null mice; assay type: in vivo; settings: 1 μg FBG, 3 days
Procedure: Representative sections of the knee joint of TLR2 (a) and TLR4 (b) null mice 3 days after intra-articular injection of 1 μg FBG. Sections are stained with hemotoxylin and eosin. Magnification ×10 (n=5 mice per genotype). (c) Quantification of joint inflammation, bone erosion, cartilage surface erosion and chondrocyte death in the knee joints of TLR2 (white bars) and TLR4 (black bars) null mice 3 days after intra-articular injection of 1 μg FBG. Data represent the mean+/−SD (n=5 per genotype).
Homozygous TLR2 and TLR4 deficient mice on a C57BL/6 background (an inbred strain of mice with a black coat) were obtained from B&K Universal (Hull, UK) Hoshino (1999) and Takeuchi (1999). Homozygous MyD88 deficient mice on a C57BL/6 background were provided by the Sanger Institute (Cambridge, UK). Age matched congenic inbred wild type C57B/L6 mice were obtained from Charles River (Margate, UK). For isolation of mouse embryo fibroblasts one female aged 8-10 weeks was mated with two males aged 8-10 weeks. For isolation of bone marrow derived macrophages mice were female and between 10-12 weeks of age at the time of experimentation.
Coronal tissue sections (4 μm) were cut at 7 depths throughout the joint; 80 μm apart and stained with hematoxylin and eosin or Safranin-O to assess joint pathology. Histopathologic changes were scored using the following parameters as described in Van Lent (2006). […]

[2] = 1 μg FBG, 3 days after injection

FBG: recombinant fibrinogen-like globe, 227 amino acid globular domain at the C terminal of tenascin-C
inflammation and proteoglycan loss (wild type mice; 100 ng FBG intra-articular): No inflammation or proteoglycan loss | knee joint histology (wild type mice; 1 μg FBG intra-articular, 3 days): inflammatory cell infiltration (FIG. 6f), mild synovitis, pannus formation (FIG. 6g) and proteoglycan loss | histological quantification: cartilage surface erosion and bone damage (wild type mice; [2]): modest amount | histological quantification: cellular infiltrate, exudate and chondrocyte death (wild type mice; [2]): high levels | knee joint histology (wild type mice; 3 μg FBG intra-articular): A similar response | joint inflammation (wild type mice; wild type mice, intra-articular, 100 ng, 1 or 3 μg): transient and dose dependent stimulation of joint inflammation | adhesion of synovial fibroblasts from RA joints (RAF) [1]: proadhesive | cytokine synthesis (MyD88; MEFs from MyD88 deficient mice, 24 h): does not stimulate cytokine synthesis | responsiveness after re-transfection of wild type MyD88 (MyD88; MyD88 deficient MEFs, data not shown): restored the responsiveness | joint inflammation (TLR2 and TLR4 null mice; TLR2 null mice): able to induce joint inflammation | joint inflammation (TLR2 and TLR4 null mice; TLR4 null mice): not in TLR4 null mice
